According to ChEMBL document CHEMBL3507680, “University of Dundee, Gates Library screen for HepG2 cell viability”:

assay: Human HepG2 cell viability assay in 384 well format; assay type: toxicity, cell-based; parameters: dose 125 nL, time 70.5 hour; cytotoxicity at 70.5 h: concentration not given beside the values; conditions: HepG2 cells, read-out: Inhibition

SMILES	cytotoxicity at 70.5 h [%]
O=C1Nc2ccccc2CNC12CCN(CC1CCCC1)CC2	-7.54
CCN(CCOC)C(=O)CCc1scnc1C	-2.82
O=S1(=O)NCC2(CCNCC2)COc2ccccc21	-2.63
O=c1n(CCSCc2ccccc2Br)nc2ccccn12	4.82
O=C(c1cccn1Cc1cccs1)N1CCN2CCCCC2C1 (stereo not given)	4.27
O=S1(=O)CCC(n2cc(C3=CCN(CCN4CCCCC4)CC3)cn2)C1 (stereo not given)	-7.91
O=C(O)CCCC(=O)Nc1cnn(COc2ccc(F)cc2Cl)c1	7.18
O=C(NCc1ccc(CN2CCCC2)cc1)NC1(CO)CCCC1	2.2
Cc1nnc(CNC(=O)C2CSCCC(=O)N2)o1 (stereo not given)	45.2
CC(C)c1nccn1C(C)C(=O)NC1Cc2ccccc2C1 (stereo not given)	-1.16
O=C(c1nc2c(s1)CCCN2CC1CC1)N1CCOCC1	4.5
NC(=O)Cn1ccnc1C1CCCN(CCSc2ccccc2)C1 (stereo not given)	-12.6
O=C(NCc1ccccn1)C1=NN(c2ccccc2)C(=O)CN1	-16.4
CC(C)c1nccn1CCC(=O)N1CCCCC1c1ccn[nH]1 (stereo not given)	3.76
CCCN(C(=O)c1cnccn1)c1nc2c(s1)CCc1c-2cnn1C	7.37
Cn1cnc2c1CCN(Cc1nc(-c3ccco3)no1)C2	8.47
CN(C)c1cc2c(nn1)CCN(C(=O)c1cc3c(s1)CCCC3)C2	13.1
CCOC(=O)CSc1nnc([C@@H](N)C(C)C)o1	-7.09
CN1C(=O)CC2(CCNCC2)c2ccccc21	6.26
c1cc(-c2c[nH]c([C@@H]3COCCN3C3CCOCC3)n2)ccn1	-0.86
COc1ccc(CN2CCO[C@H]3[C@H](OCc4ccncc4)CC[C@@H]32)cc1	58.1
CC(C)c1nc(CN(C)C2CCN(Cc3nc(C4CC4)no3)C2)no1 (stereo not given)	12
CCc1n[nH]c(C2CN(C(=O)c3cc4c(s3)CCC4)CCO2)n1 (stereo not given)	-4.28

SMILES	cytotoxicity at 70.5 h [%]
O=C(NCCOc1ccc(Cl)cn1)Nc1ccccn1	0.428
CC(Cc1cccnc1)Nc1ncnc2cccc(F)c12 (stereo not given)	1.44
COCCC(=O)N1CC[C@H]2C(=O)N(c3ccsc3)CCO[C@H]2C1	-1.99
CN(C)C(=O)CCCS(=O)(=O)Cc1cc(Cl)c2c(c1)OCO2	-2.84
COCC1CN(C(=O)Cc2cccs2)Cc2nnn(CC3CC3)c21 (stereo not given)	2.3
COCCN1CC2(CCCN(c3ncc(Cl)cc3F)C2)CCC1=O (stereo not given)	3.19
CCc1nn(-c2cc(Oc3ccccc3)nc(C)n2)c(N)c1C#N	2.22
CCN1CC2(CC1=O)CN(Cc1ccsc1)CCN(C(=O)C(C)C)C2 (stereo not given)	-15.8
COc1ccc2c(c1)NC(C1CCNCC1)NS2(=O)=O (stereo not given)	-4.76
Cc1cc(C)n(NC(=O)c2cccc3c2OCC3)c(=O)c1	-6.18
CCC(O)CNC(=O)c1cc(COc2ccc(OC)cc2Cl)[nH]n1 (stereo not given)	-1.08
Cn1ncc2c1C(COCC1CC1)CN(c1ncc(F)cn1)C2 (stereo not given)	-4.28
COc1c(CNC2CCC(O)CC2)c(C(C)C)nn1C (stereo not given)	-5.04
O=C(c1cccnc1SC/C=C/c1ccccc1)N1CCOCC(O)C1 (stereo not given)	1.08
CCOc1ncccc1C(=O)N1CCC(Nc2ccc(C)nn2)CC1	-2.98
CS(=O)(=O)N1CC2(CCN(C(=O)c3ccncc3)CC2)c2ccccc21	-6.91
Cc1ccsc1CN1CCC(c2nnc(Cn3cccn3)n2C)CC1	-2.95
CC(C)CC1CC(=O)Nc2c1cnn2Cc1ccco1 (stereo not given)	-22.8
Cc1ccc(C(=O)Nc2cnn(CC(=O)NC3CCCC3)c2)c(=O)[nH]1	-3.7
CCC(NC(=O)CS(=O)(=O)C1CCCC1)c1cc(F)ccc1F (stereo not given)	-7.05
CC(CNC(=O)c1cccnc1Oc1cccnc1)N(C)C (stereo not given)	-8.64
O=C(CSC1CCc2ccccc2NC1=O)Nc1ccc(CCO)cc1 (stereo not given)	-1.18
c1ccc(O[C@@H]2CC[C@H]3[C@H]2OCCN3CC2CCOCC2)nc1	1.68

SMILES	cytotoxicity at 70.5 h [%]
Cc1cc(NC(=O)NCCc2cscn2)nn1C	-4.59
Cc1ccc(-c2ccnc(N[C@H]3COC[C@@H]3N3CCCC3)n2)c(C)n1	-10.9
COCC1CN(C(=O)Nc2ccc(Cl)cc2Cl)CCO1 (stereo not given)	-8.42
CN(Cc1ccccc1NCc1ncc[nH]1)C(=O)c1cccs1	14
O=C(NCC1CC1)C12CC(CN1Cc1nccs1)C2	-9.03
Nc1cc(N2CCCC(COc3ccc(F)cc3)C2)ncn1 (stereo not given)	-12.7
O=C(Nc1ccc(-c2csnn2)cc1)N1CCN2CCCCC2C1 (stereo not given)	5.22
O=c1c(-c2ccnc(NC3CCCCC3)n2)cnc2sc(Cl)cn12	-5.61
OCc1ccc(-c2c(-c3ccccc3)ncn2CCN2CCOCC2)o1	16.6
NS(=O)(=O)c1cnn(-c2ccc(NC(=O)C3CCCCC3)cn2)c1	-0.503
CCOCC1CN(S(=O)(=O)CC)Cc2cnn(CC3CC3)c21 (stereo not given)	6.24
Cc1nc(CN2CC(CO)Oc3ccccc32)sc1C (stereo not given)	-3.25
Fc1cc(CNCc2ccc3c(c2)CCO3)ccc1N1CCOCC1	-6.5
Cc1ccc(NC2CCN(C(=O)c3ccc(Cl)o3)CC2)nn1	34.4
c1cc(OCc2ccc3c(c2)OCCO3)ccc1CNC1CC1	22.8
CC(C)c1ccc2c(c1)CCCN2C(=O)CN(C)S(C)(=O)=O	-94.4
Cc1[nH]c2ccc(CNc3cc(C(N)=O)ccn3)cc2c1C	-0.16
Cc1noc(C2CCN(C(=O)c3cccs3)CC2)n1	-9.06
CC(C)c1nn(C)cc1CNCc1ccnc(N(C)C)c1	-7.83
CN(CCCO)c1nc(-c2ccc(C(N)=O)cc2)nc2c1CCNC2	-13.3
CC(C)(O)CCc1cccc(C(=O)NCCC2=CSC3=NCCCN23)c1	-0.369
Cc1cc(C)n(CC2CCCN2C(=O)Cc2c(C)noc2C)n1 (stereo not given)	7.13
Cc1nn(C)c(N(C)C)c1CNCc1cnn(Cc2ccccc2)c1	-2.79

SMILES	cytotoxicity at 70.5 h [%]
O=C(CCCOc1ccc(F)cc1)N1CCCC(n2cccn2)C1 (stereo not given)	0.781
Cc1cc(C)nc(C2CCN(C(=O)c3cnco3)C2)n1 (stereo not given)	-6.7
CN(Cc1n[nH]c(=O)n1Cc1ccccc1F)S(C)(=O)=O	5.65
Cc1cc(C)c(CNC(=O)NCc2ccc(F)c(C)c2)c(=O)[nH]1	-0.902
O=C(NCCN1CCc2ccccc21)c1cc(-c2ccc(O)cc2)n[nH]1	46.5
Cc1ccc(CN2CC[C@H]3[C@H]2CC(=O)N3c2cccnc2)o1	8.92
O=C(O)C(c1cccc2c1OCC2)N1CCC(N2CCSCC2)CC1 (stereo not given)	0.963
Cc1cc2cc(CNC3CCN(CC4CCOC4)CC3)oc2cc1C (stereo not given)	10.8
Cc1nccn1-c1cccc(C2CCCN2S(=O)(=O)c2cn(C)cn2)n1 (stereo not given)	31.6
CC(C)(CN1CCCC1)CN1CCC(Cn2cc(CCO)nn2)CC1	18.9
Cc1ccc(O)c(C(=O)N2CCCC2c2nncn2CC(C)C)c1 (stereo not given)	-0.402
COCC(=O)N1CCc2[nH]c(=O)ccc2C1	-8.99
Cn1cc(CN2CCc3c(CNC(=O)C4CC4)cncc3C2)cn1	-1.11
CC(O)CN(C(=O)NC1CC1)C(C)C (stereo not given)	29.8
Cc1ccc(NC(=O)c2nc3c(s2)CCCN3C(=O)C2CC2)cn1	3.07
CC(Nc1cccc(CN2CCOC2=O)c1)C(=O)Nc1ccccc1F (stereo not given)	-7.83
Cc1cc(C)cc(S(=O)(=O)NCC2CNCCOC2)c1 (stereo not given)	-1.55
CN(C)Cc1ccccc1CN(C)C(=O)c1ccoc1	-8.04
NC(=O)c1cc2c(nc1Oc1ccc(CN3CCCC3)cc1F)CCC2	-10.9
Cc1noc(C)c1CN1CC[C@@H]2O[C@H](COCC3CC3)CC[C@@H]21	-4.64
Cc1cccnc1NC(=O)c1ccc(-n2ncc(C#N)c2N)cc1	-4.45
CN1CC2(CCN(C(=O)c3ccc(-n4cccn4)cc3Cl)C2)OC1=O (stereo not given)	-2.7
C=C(C)CN(CC)C(=O)CN(C)C1CCc2ccccc21 (stereo not given)	-2.32

SMILES	cytotoxicity at 70.5 h [%]
CC(C)c1nn(C)c(N(C)C)c1CNCc1ccnc(N(C)C)c1	-0.315
N#Cc1cnc(NC2CCN(C(=O)C3CCCCC3)CC2)c(Cl)c1	-0.508
Oc1cc(CC2COCCN(CC3(O)CCOCC3)C2)ncn1 (stereo not given)	23
O=C(NCCCO)c1cc(-c2ccc3c(c2)CCO3)n[nH]1	14.5
COCCOC[C@]1(CNCc2ccc(OC)cc2)C[C@@H](O)[C@@H](O)C1	-7.9
CC(O)CNC(=O)Nc1ccc(Br)cc1Br (stereo not given)	-3.83
Cc1noc(C)c1CC(=O)N1CCC(Nc2cccnn2)CC1	20.6
Cc1nc(N2CCCC2)nc2c1CN(C(=O)c1ccco1)CC2	-4.28
CCc1ccc(NC(=O)N2C[C@H]3C[C@H](C(=O)NC4CCC4)[C@@H](C2)O3)cc1	8.99
Cc1cc(C(=O)NCc2cccn2C)nn1C	15.6
CCSc1ccccc1C(=O)NCC1CCN(Cc2ccsc2)CC1	2.8
COCC(=O)N(C)Cc1ccc(F)c(F)c1	28.3
CC(C)c1nc(C2CCCN2Cc2nnc(C3CCC3)o2)no1 (stereo not given)	14.8
O=C(c1ccc2ccccc2c1)C1CCCN(C(=O)Cn2cncn2)C1 (stereo not given)	-1.71
Fc1cnccc1CN1CCCC2(CCN(c3ncccn3)CC2)C1	-5.15
Cc1noc(C)c1-c1ccc(C2CCCN2CCC(N)=O)nc1 (stereo not given)	-3.28
Cn1cc(CN2CCC(F)(F)C3(CCN(c4ccccn4)C3)C2)cn1 (stereo not given)	-14.4
Cc1ccc(C(=O)NC2CCN(Cc3noc(C(C)C)n3)CC2)s1	-8.2
CNC(=O)CS(=O)(=O)C1CCN(S(=O)(=O)c2cccc(C(C)=O)c2)CC1	-6.78
COc1cccc(N2Cc3nc(=O)n(C(C)C)n3C2=O)c1	-13.3
COc1cccc(S(=O)(=O)Cc2cc(C)on2)c1	-3.06
CC(CC1CC1)NCCCN1CCCN(C)CC1 (stereo not given)	7.35
c1ccc(Cn2cccn2)c(CNCC2CNc3ccnn3C2)c1 (stereo not given)	-11.7
